This is an account of results in patent publication US10071960B1, “Enaminone-grafted trithiocarbonate with anticancer and antimicrobial activity” (KING SAUD UNIVERSITY, priority 2017, dated 2018).

In brackets after ≈: the same amount, converted by molar mass.

The subject of data set [1] is Brevibacillus laterosporus Wild strain. Briefly: In vitro antimicrobial activity (MIC, MBC). The format is cell-based. As to conditions: FIGS. 4 and 5. On the procedure: (§1) Biological activity of compound 3 as antimicrobial agents was performed according to (Lam et al. 2016). Lyophilized cultures of Streptococcus nutans ATCC 35668, Bacillus subtilis and Brevibacillus laterosporus Wild strains (Gram positive bacteria), Salmonella typhi Wild strain (Gram negative bacteria), Candid albicans ATCC 60193 (yeast), Cryptococcus neoformans Wild strain (yeast), Aspergillus fumigatus AUMC 8794 (mold), and Penicillium chrysogenum AUMC (mold) were grown aerobically on the appropriate medium and in incubating conditions before minimal inhibitory, minimal Bactericidal, and minimal fungicidal concentration testing (MIC, MBC, and MFC). […]
(§2) The total count of microbes was counted by measurement of bacterial and yeast cells; and spores of mold using hemocytometer and account at 400×.
(§3) The bacterial suspensions were prepared from bacterial cultures which gave an optical density reading of ˜0.9 at 620 nm. […]
(§4) To determine MIC of the compound 3, a Mueller-Hinton broth and Potato dextrose broth were used for bacteria and fungi, respectively. […] After incubation, the microbial growth was detected in the wells by p-iodonitrotetrazolium violet (Sigma, USA) reagent. […] Data are expressed as mean±s.d. of the biological replicates and statistically analyzed using One-Way ANOVA analysis using Tukey test (P<0.05) (SPSS, 13.0).

Another data set deals with Bacillus subtilis. Briefly: In vitro antimicrobial activity (MIC, MBC). As to conditions: FIGS. 4 and 5. Format: cell-based. On the procedure:
as §1, §2, §3, §4

Data set [2] has as its system Hepg2, LoVo, and MDA-MB-231 cell lines. Briefly: MTT growth inhibition, all three tested human tumor cells. As to conditions: 48 hours, read-out: IC50 concentrations, range over all three tested human tumor cells. Format: cell-based. How it is done: (§5) HepG2 (human hepatocarcinoma), LoVo (human colorectal adenocarcinoma) and MDA-MB-231 (human breast cancer) cancer cell lines were selected for the in vitro antiproliferative activity. Cells were seeded in 24-well plates at a density of 50,000 cells/well for 24 hours for adherent. After 24 hours, cells were treated with increasing concentrations of compound 3 or an equal volume of vehicle (DMSO) as a control and were incubated for 48 hours. 100 μL of MTT reagent (5 mg/ml) were added. The plates were incubated for 2 hours and absorbance was determined at 540 nm in an ELISA plate reader (Thermo, USA). Percentages of cell survival were calculated as follows: % cell survival=(absorbance of treated cells/absorbance of cells with vehicle solvent)×100. The 50% inhibitory concentration (IC50) was calculated from the dose-response curve obtained by plotting the percentage of cell survival versus the concentration of compound 3.

Data set [3] has as its system LoVo Colon cancer cells. Briefly: MTT antiproliferative assay, LoVo. Format: cell-based. As to conditions: Homo sapiens, 48 hours. On the procedure: as §5
A general note: Tetrazolium dyes change colour on reduction, which living cells bring about.

The subject of data set [4] is Cryptococcus neoformans Wild strain. Kind of data set: In vitro antimicrobial activity (MIC, MFC). The format is cell-based. As to conditions: Cr. neformans; FIGS. 4 and 5. On the procedure:
as §1, §2, §3, §4

The subject of data set [5] is Candida albicans ATCC 60193. Briefly: In vitro antimicrobial activity (MIC, MFC). Format: cell-based. As to conditions: C. albicans; FIGS. 4 and 5. How it is done:
as §1, §2, §3, §4

A further data set concerns HepG2 Liver cancer cells. Kind of data set: MTT antiproliferative assay, HepG2. Format: cell-based. As to conditions: Homo sapiens, 48 hours. On the procedure:
as §5

Data set [6] has as its system LoVo Colon cancer cells. Briefly: LDH release cytotoxicity assay, LoVo. The format is cell-based, human. As to conditions: treated with IC50 for 48 hours; FIGS. 7 and 8A-8F. On the procedure:
Lactate dehydrogenase (LDH) assay was performed to assess the LDH release into the media following compound 3 treatments (IC50) on HepG2, LoVo and MDA-MB-231 cells after 48 hours of incubation. LDH cytotoxicity assay was carried out using an in vitro toxicology assay kit (Sigma Aldrich Inc., USA), according to protocol in the user's manual. The amount of LDH released in culture media was measured at 490 nm using an ELISA plate reader (Thermo, USA).
In general terms: LDH leaks from cells whose membrane has failed.

The test system of data set [7] is MDA-MB-231 Breast Cancer cells. Briefly: MTT antiproliferative assay, MDA-MB-231. The format is cell-based. As to conditions: Homo sapiens, MDA-MB-231 cells, 48 hours. How it is done:
as §5

As to `CCOC(=O)C(=CN(C)C)SC(=S)SC(=CN(C)C)C(=O)OCC` (stereo in doubt) [compound 3, (Z)-ethyl 3-(dimethylamino)-2-(((((Z)-1-(dimethylamino)-3-ethoxy-3-oxoprop-1-en-2-yl)thio)carbonothioyl)thio)acrylate], the “MIC, MBC and MFC: susceptibility compared to other tested microorganisms” value (in [1]; against Bacillus subtilis) was “resistant” each time. The IC50 in data set [2] was 37.5 to 45 µg/mL (≈ 95.5 to 115 µM); with LoVo Colon cancer cells [3], 37.5 µg/mL (≈ 95.5 µM); with HepG2 Liver cancer cells, 38 µg/mL (≈ 96.8 µM); in data set [7], 45 µg/mL (≈ 115 µM). In addition, the “MIC, MBC and MFC: susceptibility compared to other tested microbes” value in data set [4] and in [5] was “more susceptible” each time. Moreover, in the data set with LoVo Colon cancer cells [6], the “cytotoxic effects (LDH release, morphology) compared between tumor cell lines” value was “more active”.
